{"source": "paper PMC10269895", "about": "(Microbiology Spectrum, 2023)", "key": {"[1]": {"experiment": "Cellular permeability assay using the CaCo2/TC7 cell line", "type": "in vitro ADME, human", "conditions": "human, Caco-2; 1 or 20 μM, apical-to-basolateral, 120 min, pH 7.4; read-out: Apparent permeability", "method": "(§1) CaCo2/TC7 cells were seeded in a Falcon 24-well multiwell insert system with 1.0-μm-pore high-density polyethylene terephthalate (PET) membrane plates, at a density of 60,000 cells per well in DMEM (high glucose, with Glutamax I, without HEPES, with 20% fetal calf serum [FCS], and with penicillin-streptomycin). The cells were incubated for at least 21 days to ensure complete differentiation, polarization, and formation of a tight barrier layer. Permeability assays were performed in Hanks’ balanced salt solution (HBSS) with sodium taurocholate (186 μM), HEPES (10 mM), and bovine serum albumin (BSA) (0.5% [wt/vol]), adjusted to pH 7.4 with sodium hydroxide (1 N). GE81112A at 1 and 20 μM was assayed for 120 min in the apical-to-basolateral direction with an apical pH of 7.4 and a basolateral pH of 7.4, without a BSA gradient (0.5%) on either side. After the incubation period, apical and basolateral concentrations of GE81112A were determined using liquid chromatography-tandem mass spectrometry (LC-MS/MS)."}, "CaCo2/TC7 cells": {"system": "CaCo2/TC7 cells", "experiment": "Cellular permeability assay using the CaCo2/TC7 cell line", "type": "in vitro ADME, human", "conditions": "predicted from CaCo2/TC7 permeability", "method": "as §1"}, "primary rat hepatocytes": {"system": "primary rat hepatocytes", "experiment": "Cytotoxicity (CellTiter-Glo ATP and neutral red uptake)", "type": "cell-based", "method": "(§2) The toxicity of GE81112A toward human hepatocellular carcinoma HepG2 HB-8065 (ATCC) cells and freshly isolated primary Sprague-Dawley rat hepatocytes (Charles River) was assessed by using the CellTiter-Glo ATP-monitoring kit (Promega) and by quantifying the ability to store the dye neutral red (neutral red uptake [NRU] solution; Sigma-Aldrich, St. Louis, MO, USA). The assay was conducted in 96-well microtiter plates in a test volume of 200 μL. GE81112A was tested in an 8-fold 1:2 dilution series with a final concentration range of […]. HepG2 cells or primary hepatocytes were maintained at 37°C in 5% CO2 in DMEM-F-12 medium containing 1% nonessential amino acids, 1% sodium pyruvate, and 10% heat-inactivated FCS. Prior to each test, 100 μL of culture medium was added to each well (each containing about 20,000 cells), and the plates were incubated for 16 h as described above. GE81112A was diluted in culture medium to obtain appropriate concentrations and was added to the wells as six replicates. […] After incubation for 24 h as described above, cell viability was calculated either by cell lysis and subsequent luminometric quantification of the ATP concentration in each sample or by measurement of the amount of neutral red taken up by the cells. NRU was measured at 540 nm (Tecan Genios Pro) after 3 h of incubation with NRU solution and subsequent cell lysis. […]"}, "HepG2 cells": {"system": "HepG2 cells", "experiment": "Cytotoxicity (CellTiter-Glo ATP and neutral red uptake)", "type": "cell-based, human", "conditions": "24 h; highest concentration with cell viability of >80%", "method": "as §2"}, "[2]": {"system": "Salmonella enterica serovar Typhimurium", "experiment": "Ames II test", "type": "cell-based", "conditions": "with and without S9", "method": "The test was carried out with and without metabolic activation by S9 liver homogenate from rats that had been pretreated with Arcolor, S9 mix. The Salmonella enterica serovar Typhimurium tester strains included the mixed strains TA7001 to TA7006 for detection of base pair substitutions and TA98 for detection of frameshift mutations ([18]). Bacterial cultures (from frozen stocks) were grown overnight and tested for genotype conformation. Test compound diluted in DMSO was tested at 16, 50, 160, 500, 1,600, and 5,000 μg/mL with each strain, both in the presence and in the absence of the exogenous hepatic microsomal fraction (S9) from Aroclor 1254-treated rats (obtained as described above). […] Then, 2.8 mL of a pH indicator solution (Merck KGaA, Darmstadt, Germany) (bromocresol purple) containing trace amounts of histidine and biotin (ready-to-use commercial solution) was added to each well, and all samples were then transferred into a 384-well plate. […] Toxicity was assessed by evaluating the density of growth of the background lawn of bacteria. Mutagenicity was assessed by counting the number of wells with color changes (purple or yellow) or the number of easily visible colonies (revertants)."}, "[3]": {"experiment": "In vivo tolerability study in uninfected mice", "design": "species or system Swiss mice", "conditions": "30 mg/kg single i.v. bolus in NaCl (0.9%)", "method": "We first performed a tolerability study in uninfected mice by injecting GE81112A at up to 30 mg/kg, formulated in NaCl (0.9%), via intravenous (i.v.) bolus administration.\nAll animal studies were performed in accordance with relevant guidelines and regulations. A 30 mg/kg dose of GE81112A, formulated in 0.9% NaCl, was administered to noninfected Swiss mice (n = 3), using a single i.v. bolus. Adverse events and animal weights were monitored for 24 h after administration."}, "[4]": {"experiment": "PK in mice after a single i.v. administration", "type": "in vivo, male Swiss mice", "conditions": "10 mg/kg i.v.", "method": "In order to determine the PK parameters of GE81112A, a single i.v. dose of 10 mg/kg in solution was administered to male Swiss mice, and plasma, urine, and tissue concentrations were monitored over 24 h (Fig. 2). After i.v. dosing, the different parameters were investigated in more detail. A high distribution of GE81112A in the kidney points toward its excretion via urine. Therefore, urinary tract infections (UTIs) represent the most probable scope of application (Table 2).\nPlasma, urine, and tissue concentrations and PK parameters for GE81112 were assessed after a single i.v. administration of a 10-mg/kg solution to male Swiss mice. Briefly, 5 mL/kg of a 2-mg/mL solution of GE81112A was administered i.v. to fed male Swiss mice (weight of 20 g, obtained from Janvier; n = 24 mice). Samples were collected at 0.08, 0.25, 0.5, 1, 2, 4, 8, and 24 h postadministration for bioanalysis. Bioanalytical samples (plasma, urine, and tissue) were analyzed for the concentration of GE81112 using an exploratory LC-MS/MS method, and PK parameters were estimated using the PK software Phoenix WinNonlin v6.4, using a noncompartmental model and a linear trapezoidal interpolation calculation. The studies were ethically approved by the German governmental authority (protocol number FH/2002; Regierungspräsidium Darmstadt)."}}, "note": "“And” between values parts separate entries of the source, which are not always exact repeats. Identical values can stand only once."}
{"smiles": "NC(=O)OC[C@@H](O)C[C@H](NC(=O)[C@H]1NCCC[C@H]1O)C(=O)N[C@@H](Cc1c[nH]cn1)C(=O)N[C@H](C(=O)O)[C@H](O)c1cnc(Cl)[nH]1", "note": "[GE81112A]", "values": [{"measurement": "Papp at 120 min", "setting": "[1]", "value": "0.028 to 0.316", "unit": "×10⁻⁶ cm/s"}, {"measurement": "Absorption in the human intestine (predicted)", "setting": "CaCo2/TC7 cells", "value": "low"}, {"measurement": "No observed effect concentration (NOEC)", "setting": "primary rat hepatocytes; 24 h, highest concentration with cell viability of >80%", "value": 15.6, "unit": "µM"}, {"measurement": "Overview finding: Cytotoxicity (rat hepatocytes/HepG2 cells)", "setting": "primary rat hepatocytes; Table 3 summary rating", "value": "+/− (to be monitored)"}, {"measurement": "No observed effect concentration (NOEC)", "setting": "HepG2 cells", "value": 15.6, "unit": "µM"}, {"measurement": "Mutagenicity", "setting": "[2]", "value": "no mutagenicity"}, {"measurement": "Tolerability (signs of toxicity or adverse effects)", "setting": "[3]", "value": "did not show any sign of toxicity or adverse effects"}, {"measurement": "Tissue/plasma ratio, kidney", "setting": "[4]", "value": 3.00}, {"measurement": "Tissue/plasma ratio, liver", "setting": "[4]", "value": "20 and 20.6"}, {"measurement": "Tissue/plasma ratio, lung", "setting": "[4]", "value": 0.515}, {"measurement": "Proportion of dose recovered in urine", "setting": "[4]; over 24 h", "value": 30, "unit": "%"}, {"measurement": "clearance", "setting": "[4]; male, Swiss, mouse, in vivo, iv", "value": 12.2, "unit": "mL/min/kg"}, {"measurement": "Vd", "setting": "[4]; male, Swiss, mouse, in vivo, iv, read-out: Volume of distribution", "value": 0.321, "unit": "L/kg"}, {"measurement": "half-life", "setting": "[4]; male, Swiss, mouse, plasma, iv", "value": 4.5, "unit": "h"}, {"measurement": "dose excreted", "setting": "[4]; male, Swiss, mouse, urine, iv, over 24 h, read-out: Proportion of dose recovered in urine", "value": 30, "unit": "%"}]}
